From patent US20150087610A1, “Method of Modifying Fertility” (Monell Chemical Senses Center, priority 2012, published 2015)
“Also recorded” adds a separate entry of the source.

Experiments:
mouse spermatids = test: Calcium imaging of mouse spermatids with bitter tastants; type: cell-based; conditions: spermatids; for number of cells responding: out of 29 cells; for calcium response in the principal piece: compared with acrosome and midpiece; for increase in intracellular calcium, acrosome versus midpiece: subcellular areas; for cells responding with increased intracellular calcium: 29 cells
Procedure: (§1) Eight adult male mice of each genotype: C57BL/6 and Gnat^−/− mice, were sacrificed, and the testis and caudal epididymis were immediately removed and transferred into HS solution containing (mM): 135 NaCl, 5 KCl, 2 CaCl2, 1 MgCl2, 30 Hepes, 10 glucose, 10 lactic acid, and 1 pyruvic acid (pH adjusted to 7.4 with NaOH) (Xia et al., 2007). For isolation of spermatids, seminiferous tubules from mouse testicle were dissected out and placed in a […] containing 3 ml of HS medium. The tissue was finely minced and gently triturated with a fire-polished pipette, and the mixture was filtered with a 100 μm nylon cell strainer (BD Falcon, Bedford, Mass.). The dissociated cells were collected in a 1.5 ml plastic tube, and washed once in HS medium by centrifugation at 300 g for 4 min and resuspended in HS medium.
(§2) Mouse spermatogenic cells were loaded with 5 μM acetoxymethylester of Fura-2 (Fora-2/AM) and 80 μg/ml pluronic F127 (Molecular Probes, Eugene, Oreg.) and transferred onto coverslips (22×60 mm, No. 0, Thomas Scientific Co.) for at least 1 hour at room temperature. The coverslip with spermatogenic cells was mounted in a recording chamber and superfused with HS or HS containing tasting compounds or the bitter blocker probenecid (Sigma-Aldrich, St. Louis, Mo.) via a valve controller (VC-8, Warner, USA).
(§3) Imaging of calcium responses was conducted as previously described (Gomez et al, 2005). Stimulation duration was 30 seconds and perfusion rate was 0.8 ml/min. Cells were excited at 340 nm and 380 nm and signals at 510 nm were captured by a cooled CCD camera. The change in fluorescence ratio (F=F340/F380) was recorded for regions-of-interest drawn on the cells.
(§4) To analyze the dose-dependent calcium responses, the response intensity (FN) was normalized and expressed as ΔF/F0 value: ΔF/F0=(F−F0)/F0. Here F0 is the fluorescence at the beginning of stimulation, i.e., time 0, and F is the peak fluorescence ratio evoked by the stimulation. Dose-response curves and EC50 values were generated based on the normalized responses using the software Origins by nonlinear regression.

epididymal sperm cells = test: Calcium imaging of mouse epididymal sperm cells with bitter tastants; type: cell-based; conditions: for cells responding with calcium responses: 49 cells; for # CELLS RESPONDED / calcium responses from the principal pieces / amplitudes of the responses from the acrosome and midpiece: epididymal sperm; for amplitudes of the responses from the acrosome and midpiece: subcellular areas
Procedure: (§5) For isolation of epididymal spermatozoa, three incisions were made to the caudal epididymis, which was incubated in a 1.5-ml tube containing 1 ml of HS medium and 5 mg/ml bovine serum albumin (BSA) in a 5% CO2 incubator at 37° C. for 20 minutes (Xia et al., 2007). Sperm cells released into the medium were collected from top 0.1 ml, which were adjusted to 1×10^7 cells/ml HS medium.
as §2, §3, §4

[1] = test system: sperm isolated from the Gnat3−/−mutant mice; test: Calcium imaging of sperm from Gnat3−/− mutant mice; type: cell-based, mouse; conditions: 2 mM
Procedure: as §1, §5, §2, §3

[2] = response profile 1, total 49 cells
[3] = response profile 3, total 49 cells
[4] = response profile 4, total 49 cells
[5] = response profile 1, total 29 cells
[6] = response profile 2, total 29 cells
[7] = response profile 4, total 29 cells
[8] = FIG. 6, epididymal sperm Cell 1
[9] = FIG. 6, epididymal sperm Cell 4
[10] = FIG. 6, epididymal sperm Cell 5
[11] = response profile 2, total 49 cells
[12] = response profile 5, total 49 cells
[13] = response profile 6, total 49 cells
[14] = response profile 9, total 49 cells

Question: For OCc1ccccc1O[C@@H]1O[C@H](CO)[C@@H](O)[C@H](O)[C@H]1O [salicin], which “number of cells responding” value (mouse spermatids) is on record?
Answer: Its value is “No spermatids were found to respond”.

Question: And the “frequency of responsive cells” value (epididymal sperm cells; FIG. 6, epididymal sperm)?
Answer: The value was “rare”.

Question: What about the “cells responding with calcium responses” value (epididymal sperm cells; epididymal sperm cells) of the same molecule?
Answer: Its value is “about 14.3%”.

Question: And the “# CELLS RESPONDED” value (epididymal sperm cells; [2])?
Answer: The value was 4.

Question: And the “# CELLS RESPONDED” value (epididymal sperm cells; [3])?
Answer: Its value is 1.

Question: What about the “# CELLS RESPONDED” value (epididymal sperm cells; [4]) of the same molecule?
Answer: The value was 1.

Question: And the “# CELLS RESPONDED” value (epididymal sperm cells; response profile 13, total 49 cells)?
Answer: The value was 1.

Question: And the “calcium response of Gnat3−/− sperm” value [1]?
Answer: Its value is “unresponsive; also recorded: did not respond”.

Question: Which “calcium response of Gnat3−/− sperm” value [1] does the source give for Nc1ncnc2c1ncn2[C@@H]1O[C@H](COP(=O)(O)OP(=O)(O)OP(=O)(O)O)[C@@H](O)[C@H]1O [ATP] here?
Answer: The value was “normal; also recorded: did respond”.

Question: CCN(CC)CCNC(=O)c1ccc(N)cc1 [procainamide] was tested. Which “calcium response in the principal piece” value (mouse spermatids) did it give?
Answer: Its value is “detectable but much smaller”.

Question: And the “increase in intracellular calcium, acrosome versus midpiece” value (mouse spermatids)?
Answer: Its value is “much larger in the acrosome than in the midpiece”.

Question: For C[C@@H]1C[C@@H]([C@H](O)CC2CC(=O)NC(=O)C2)C(=O)[C@@H](C)C1 [cycloheximide], which “cells responding with increased intracellular calcium” value (mouse spermatids) is on record?
Answer: Its value is 62.1%.

Question: What about the “number of cells responding” value (mouse spermatids) of the same molecule?
Answer: The value was 18.

Question: What about the “# CELLS RESPONDED” value (mouse spermatids; [5]) of the same molecule?
Answer: Its value is 3.

Question: And the “# CELLS RESPONDED” value (mouse spermatids; [6])?
Answer: Its value is 1.

Question: What about the “# CELLS RESPONDED” value (mouse spermatids; response profile 3, total 29 cells) of the same molecule?
Answer: The value was 1.

Question: And the “# CELLS RESPONDED” value (mouse spermatids; [7])?
Answer: The value was 7.

Question: What about the “# CELLS RESPONDED” value (mouse spermatids; response profile 5, total 29 cells) of the same molecule?
Answer: Its value is 1.

Question: What about the “# CELLS RESPONDED” value (mouse spermatids; response profile 7, total 29 cells) of the same molecule?
Answer: Its value is 5.

Question: And the “calcium response of individual cell” value (epididymal sperm cells; [8])?
Answer: The value was “responded”.

Question: What about the “calcium response of individual cell” value (epididymal sperm cells; FIG. 6, epididymal sperm Cell 2) of the same molecule?
Answer: The value was “responded only”.

Question: And the “calcium response of individual cell” value (epididymal sperm cells; FIG. 6, epididymal sperm Cell 3)?
Answer: The value was “responded”.

Question: And the “calcium response of individual cell” value (epididymal sperm cells; [9])?
Answer: Its value is “responded weakly”.

Question: And the “calcium response of individual cell” value (epididymal sperm cells; [10])?
Answer: Its value is “responded weakly”.

Question: What about the “calcium responses from the principal pieces” value (epididymal sperm cells) of the same molecule?
Answer: The value was “mostly undetectable”.

Question: And the “cells responding with calcium responses” value (epididymal sperm cells; epididymal sperm cells)?
Answer: The value was 93.9%.

Question: What about the “number of cells responding” value (epididymal sperm cells; epididymal sperm cells, out of 49 cells) of the same molecule?
Answer: The value was 46.

Question: What about the “# CELLS RESPONDED” value (epididymal sperm cells; [2]) of the same molecule?
Answer: Its value is 4.

Question: What about the “# CELLS RESPONDED” value (epididymal sperm cells; [11]) of the same molecule?
Answer: Its value is 13.

Question: And the “# CELLS RESPONDED” value (epididymal sperm cells; [3])?
Answer: The value was 1.

Question: And the “# CELLS RESPONDED” value (epididymal sperm cells; [4])?
Answer: The value was 1.

Question: What about the “# CELLS RESPONDED” value (epididymal sperm cells; [12]) of the same molecule?
Answer: Its value is 4.

Question: What about the “# CELLS RESPONDED” value (epididymal sperm cells; [13]) of the same molecule?
Answer: Its value is 1.

Question: And the “# CELLS RESPONDED” value (epididymal sperm cells; response profile 7, total 49 cells)?
Answer: The value was 1.

Question: And the “# CELLS RESPONDED” value (epididymal sperm cells; [14])?
Answer: The value was 1.

Question: What about the “# CELLS RESPONDED” value (epididymal sperm cells; response profile 10, total 49 cells) of the same molecule?
Answer: The value was 5.

Question: And the “# CELLS RESPONDED” value (epididymal sperm cells; response profile 12, total 49 cells)?
Answer: The value was 15.

Question: And the “amplitudes of the responses from the acrosome and midpiece” value (epididymal sperm cells)?
Answer: Its value is “equally strong”.

Question: And the “calcium response of Gnat3−/− sperm” value [1]?
Answer: Its value is “did not respond”.

Question: And the “calcium response of Gnat3−/− sperm” value ([1]; listed as cyclohexmide)?
Answer: The value was “unresponsive”.

Question: What does the source list for CC[N+](CC)(CC(=O)Nc1c(C)cccc1C)Cc1ccccc1 [denatonium]?
Answer: cells responding with increased intracellular calcium (mouse spermatids): 55.2%; calcium response in the principal piece (mouse spermatids): detectable but much smaller; # CELLS RESPONDED (mouse spermatids; [5]): 3; # CELLS RESPONDED (mouse spermatids; [6]): 1; # CELLS RESPONDED (mouse spermatids; [7]): 7; # CELLS RESPONDED (mouse spermatids; response profile 6, total 29 cells): 1; # CELLS RESPONDED (mouse spermatids; response profile 8, total 29 cells): 4; increase in intracellular calcium, acrosome versus midpiece (mouse spermatids): much larger in the acrosome than in the midpiece; calcium response of individual cell (epididymal sperm cells; [8]): responded; calcium response of individual cell (epididymal sperm cells; [9]): responded weakly; calcium response of individual cell (epididymal sperm cells; [10]): responded weakly; calcium responses from the principal pieces (epididymal sperm cells): mostly undetectable; cells responding with calcium responses (epididymal sperm cells; epididymal sperm cells): ~53.1%; # CELLS RESPONDED (epididymal sperm cells; [2]): 4; # CELLS RESPONDED (epididymal sperm cells; [11]): 13; # CELLS RESPONDED (epididymal sperm cells; [3]): 1; # CELLS RESPONDED (epididymal sperm cells; [12]): 4; # CELLS RESPONDED (epididymal sperm cells; [13]): 1; # CELLS RESPONDED (epididymal sperm cells; response profile 8, total 49 cells): 1; # CELLS RESPONDED (epididymal sperm cells; [14]): 1; # CELLS RESPONDED (epididymal sperm cells; response profile 11, total 49 cells): 1; amplitudes of the responses from the acrosome and midpiece (epididymal sperm cells): equally strong; calcium response of Gnat3−/− sperm [1]: unresponsive; also recorded: did not respond
